From paper doi:10.1101/2025.05.30.657074, “A covalent recognition strategy enables conspecific mate identification” (bioRxiv, 2025)

Experiments:
[1] = target: BmOR1/Orco (Bombyx mori, UniProt Q5WA61); assay: GCaMP6 calcium flux assay, wild-type BmOR1/Orco; assay type: cell-based
Description: (§1) The first insect pheromone system characterized at the molecular level is that of Bombyx mori, a moth long known to navigate towards its mate guided solely by pheromone cues with impressive navigation accuracy. Two PR/Orco complexes, BmOR1/BmOrco and BmOR3/BmOrco, have been linked to the behavioral responses to pheromones in B. mori (Figure 1A). The conspecific pheromone, bombykol, is detected through BmOR1/Orco and leads to sexual attraction. The heterospecific pheromone, bombykal, is sensed through BmOR3/Orco, and leads to suppression of mating behavior. We first characterized the extent to which both PR/Orco complexes are selective towards their cognate ligands. We used a previously established calcium flux functional assay where we co-transfected HEK293 cells with either BmOR1 or BmOR3, along with the coreceptor, BmOrco (here on referred to as Orco), and the fluorescent calcium reporter, GCaMP6 (Figure 1C). In this assay, ligand-activation of the heteromeric ion channel complexes by addition of either bombykol or bombykal leads to calcium influx, read out as GCaMP6 fluorescence changes that can be monitored in real-time and dose-dependent manner using a fluorescence plate reader. […] But we also found both PR/Orco complexes to be somewhat promiscuous: both complexes are activated by their non-cognate pheromones (bombykal for BmOR1/Orco and bombykol for BmOR3/Orco) with a response that is ~10 fold smaller than their cognate pheromones. […] Instead, two complexes with reciprocal specificities enable an unequivocal response to bombykal and bombykol across all concentrations, ensuring the behavioral accuracy needed for mate selection.
(§2) The assay was performed similarly to method descriptions in previous studies.
(§3) All DNA constructs used in this assay were cloned into a modified pME18 vector that contains a SV40 promotor.
(§4) Each transfection condition (per well) contained a total of 300 ng of plasmids in 1:1:1 ratio of the GCaMP6, Orco, and the corresponding OR plasmid that was diluted in 4.8 uL of OptiMEM (Gibco) along with 0.1 uL of P3000. The mixture was incubated for 5 minutes and then further incubated for 20 minutes after being mixed with Lipofectamine 3000 (Invitrogen) diluted in OptiMEM. This mixture was scaled accordingly to batch transfect 50-100 wells per construct per plate.
(§5) HEK293T cells were maintained at 37°C with 5% carbon dioxide and grown in high glucose DMEM enhanced with 10% FBS and 1% GlutaMAX (Gibco). Cells were detached with TrypLE Express Enzyme and resuspended in FluoroBrite DMEM (Gibco) with 10% FBS and 1% GlutaMAX (Gibco) to a concentration of 5 × 10^5 cells/ml. Cells were combined with each transfection condition and added to 2x16 wells of a 384-well plate (Grenier CELLSTAR). Cells were kept at 37°C for 18-20 hours before being used for fluorescence plate reading.
(§6) Odorant plates were prepared using D300e (Hewlett Packard), a digital, non-contact dispenser. Briefly, stock solutions of bombykol and bombykal were prepared in DMSO and plated onto 384-plates (Greiner, Catalog #784201) in a titrating volume to obtain a concentration series ranging between 316 nM and 100 mM with a final volume of 0.2 µL.
(§7) The odorant plates were kept at −20 °C until usage.
(§8) On the day of the GCaMP6 assay, Bravo (Agilent), a versatile liquid handler was used to prepare both the odorant plate and the assay plate (transfected cell plate) prior to the fluorescence readout using the FDSS/µcell kinetic plate Imager (Hamamatsu, C13299).
(§9) For the odorant plate, the DMSO dissolved stock solutions were diluted in 19.8 µL of Reading buffer (20 mM HEPES/NaOH (pH 7.4), 1× HBSS (Gibco), 3 mM Na2CO3, 1 mM MgSO4, and 5 mM CaCl2) to give a final concentration ranging from 3.16 nM to 1 mM with 1% DMSO. For the cell plate, the FluoroBrite DMEM (Gibco) was exchanged out with the […]
(§10) The kinetics of the fluorescence change upon odorant addition were measured using the FDSS/µcell kinetic plate Imager (Hamamatsu, C13299). […]

[2] = target: BmOR3/Orco (Bombyx mori, UniProt Q5FBE0); assay: GCaMP6 calcium flux assay, wild-type BmOR3/Orco; assay type: cell-based
Description: as §1, §2, §3, §4, §5, §6, §7, §8, §9, §10

[3] = target: OR3_K58A (Bombyx mori, UniProt Q5FBE0, K58A); assay: GCaMP6 calcium flux assay, BmOR3/Orco mutant K58A; assay type: cell-based
Description: as §1, §2, §3, §4, §5, §6, §7, §8, §9, §10

[4] = target: OR3_K58S (Bombyx mori, UniProt Q5FBE0, K58S); assay: GCaMP6 calcium flux assay, BmOR3/Orco mutant K58S; assay type: cell-based
Description: as §1, §2, §3, §4, §5, §6, §7, §8, §9, §10

[5] = target: OR3_K58Q (Bombyx mori, UniProt Q5FBE0, K58Q); assay: GCaMP6 calcium flux assay, BmOR3/Orco mutant K58Q; assay type: cell-based
Description: as §1, §2, §3, §4, §5, §6, §7, §8, §9, §10

[6] = target: OR3_C215A (Bombyx mori, UniProt Q5FBE0, C215A); assay: GCaMP6 calcium flux assay, BmOR3/Orco mutant C215A; assay type: cell-based
Description: (§11) The first insect pheromone system characterized at the molecular level is that of Bombyx mori, a moth long known to navigate towards its mate guided solely by pheromone cues with impressive navigation accuracy. Two PR/Orco complexes, BmOR1/BmOrco and BmOR3/BmOrco, have been linked to the behavioral responses to pheromones in B. mori (Figure 1A). The conspecific pheromone, bombykol, is detected through BmOR1/Orco and leads to sexual attraction. The heterospecific pheromone, bombykal, is sensed through BmOR3/Orco, and leads to suppression of mating behavior. We first characterized the extent to which both PR/Orco complexes are selective towards their cognate ligands. We used a previously established calcium flux functional assay where we co-transfected HEK293 cells with either BmOR1 or BmOR3, along with the coreceptor, BmOrco (here on referred to as Orco), and the fluorescent calcium reporter, GCaMP6 (Figure 1C). In this assay, ligand-activation of the heteromeric ion channel complexes by addition of either bombykol or bombykal leads to calcium influx, read out as GCaMP6 fluorescence changes that can be monitored in real-time and dose-dependent manner using a fluorescence plate reader. […]
(§12) HEK293T cells were maintained at 37°C with 5% carbon dioxide and grown in high glucose DMEM enhanced with 10% FBS and 1% GlutaMAX (Gibco). […] Cells were kept at 37°C for 18-20 hours before being used for fluorescence plate reading. […]
as §8
(§13) For the odorant plate, the DMSO dissolved stock solutions were diluted in 19.8 µL of Reading buffer (20 mM HEPES/NaOH (pH 7.4), 1× HBSS (Gibco), 3 mM Na2CO3, 1 mM MgSO4, and 5 mM CaCl2) to give a final concentration ranging from 3.16 nM to 1 mM with 1% DMSO. […]
as §10

[7] = target: OR3_C215S (Bombyx mori, UniProt Q5FBE0, C215S); assay: GCaMP6 calcium flux assay, BmOR3/Orco mutant C215S; assay type: cell-based
Description: as §11, §12, §8, §13, §10

[8] = target: OR3_F159A (Bombyx mori, UniProt Q5FBE0, F159A); assay: GCaMP6 calcium flux assay, BmOR3/Orco mutant F159A; assay type: cell-based
Description: as §11, §12, §8, §13, §10

[9] = target: OR3_L349A (Bombyx mori, UniProt Q5FBE0, L349A); assay: GCaMP6 calcium flux assay, BmOR3/Orco mutant L349A; assay type: cell-based
Description: as §11, §12, §8, §13, §10

[10] = target: OR3_L353A (Bombyx mori, UniProt Q5FBE0, L353A); assay: GCaMP6 calcium flux assay, BmOR3/Orco mutant L353A; assay type: cell-based
Description: as §11, §12, §8, §13, §10

[11] = target: OR3_V348A (Bombyx mori, UniProt Q5FBE0, V348A); assay: GCaMP6 calcium flux assay, BmOR3/Orco mutant V348A; assay type: cell-based
Description: as §11, §12, §8, §13, §10

[12] = target: OR3_V352A (Bombyx mori, UniProt Q5FBE0, V352A); assay: GCaMP6 calcium flux assay, BmOR3/Orco mutant V352A; assay type: cell-based
Description: as §11, §12, §8, §13, §10

[13] = system: B. mori male moths; parameters: method as in PMID 24744736, PMID 22836825; conditions: conspecific male moths; cited from earlier work

BmOR3/Orco, sequence (Q5FBE0 entry or part of it): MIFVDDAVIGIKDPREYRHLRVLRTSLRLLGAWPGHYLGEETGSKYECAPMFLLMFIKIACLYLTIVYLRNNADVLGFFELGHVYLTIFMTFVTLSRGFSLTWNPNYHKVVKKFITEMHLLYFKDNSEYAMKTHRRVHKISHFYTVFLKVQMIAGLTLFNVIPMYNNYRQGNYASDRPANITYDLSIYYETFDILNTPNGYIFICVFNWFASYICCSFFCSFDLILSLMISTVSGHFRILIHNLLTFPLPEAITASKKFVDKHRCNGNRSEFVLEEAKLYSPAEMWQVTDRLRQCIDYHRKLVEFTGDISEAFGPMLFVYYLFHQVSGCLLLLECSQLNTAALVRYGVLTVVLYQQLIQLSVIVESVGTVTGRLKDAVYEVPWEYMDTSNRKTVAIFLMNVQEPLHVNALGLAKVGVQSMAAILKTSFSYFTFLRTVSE
BmOR3/Orco, sequence (Q7YT34 entry or part of it, further chain): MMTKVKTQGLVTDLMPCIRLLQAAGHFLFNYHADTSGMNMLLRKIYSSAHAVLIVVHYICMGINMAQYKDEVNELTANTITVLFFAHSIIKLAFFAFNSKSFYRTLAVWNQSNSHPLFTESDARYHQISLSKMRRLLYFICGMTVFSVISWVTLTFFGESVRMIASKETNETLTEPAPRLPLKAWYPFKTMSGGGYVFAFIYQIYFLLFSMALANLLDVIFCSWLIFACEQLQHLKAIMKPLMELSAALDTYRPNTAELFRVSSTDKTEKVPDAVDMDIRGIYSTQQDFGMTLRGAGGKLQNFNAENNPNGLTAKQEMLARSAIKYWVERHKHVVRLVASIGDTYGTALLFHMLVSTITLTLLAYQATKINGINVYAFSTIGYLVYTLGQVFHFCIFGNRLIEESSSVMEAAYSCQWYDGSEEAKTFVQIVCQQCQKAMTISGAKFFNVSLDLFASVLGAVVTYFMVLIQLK
OR3_K58A, sequence (Q5FBE0 entry or part of it K58A): as the sequence (Q5FBE0 entry or part of it) above, with K58A counted along it
OR3_K58A, sequence (Q7YT34 entry or part of it, stated change not applied, further chain): as the sequence (Q7YT34 entry or part of it, further chain) above
OR3_K58S, sequence (Q5FBE0 entry or part of it K58S): as the sequence (Q5FBE0 entry or part of it) above, with K58S counted along it
OR3_K58S, sequence (Q7YT34 entry or part of it, stated change not applied, further chain): as the sequence (Q7YT34 entry or part of it, further chain) above
OR3_K58Q, sequence (Q5FBE0 entry or part of it K58Q): as the sequence (Q5FBE0 entry or part of it) above, with K58Q counted along it
OR3_K58Q, sequence (Q7YT34 entry or part of it, stated change not applied, further chain): as the sequence (Q7YT34 entry or part of it, further chain) above
OR3_F159A, sequence (Q5FBE0 entry or part of it F159A): as the sequence (Q5FBE0 entry or part of it) above, with F159A counted along it
OR3_F159A, sequence (Q7YT34 entry or part of it, stated change not applied, further chain): as the sequence (Q7YT34 entry or part of it, further chain) above
OR3_L353A, sequence (Q5FBE0 entry or part of it L353A): as the sequence (Q5FBE0 entry or part of it) above, with L353A counted along it
OR3_L353A, sequence (Q7YT34 entry or part of it, stated change not applied, further chain): as the sequence (Q7YT34 entry or part of it, further chain) above
OR3_C215A, sequence (Q5FBE0 entry or part of it C215A): as the sequence (Q5FBE0 entry or part of it) above, with C215A counted along it
OR3_C215A, sequence (Q7YT34 entry or part of it, stated change not applied, further chain): as the sequence (Q7YT34 entry or part of it, further chain) above
BmOR1/Orco, sequence (Q7YT34 entry or part of it): as the sequence (Q7YT34 entry or part of it, further chain) above
BmOR1/Orco, sequence (Q5WA61 entry or part of it): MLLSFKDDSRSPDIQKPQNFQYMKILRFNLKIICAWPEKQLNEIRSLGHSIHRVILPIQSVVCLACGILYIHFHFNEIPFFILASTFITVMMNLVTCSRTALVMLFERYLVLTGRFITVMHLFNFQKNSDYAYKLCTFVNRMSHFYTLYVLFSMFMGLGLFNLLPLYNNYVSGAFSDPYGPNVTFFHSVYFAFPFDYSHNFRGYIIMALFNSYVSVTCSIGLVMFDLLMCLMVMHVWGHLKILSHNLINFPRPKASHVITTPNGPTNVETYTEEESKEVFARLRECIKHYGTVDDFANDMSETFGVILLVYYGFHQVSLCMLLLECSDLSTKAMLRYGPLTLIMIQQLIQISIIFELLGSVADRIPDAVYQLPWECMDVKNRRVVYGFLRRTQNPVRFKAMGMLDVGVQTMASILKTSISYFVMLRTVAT
OR3_V348A, sequence (Q7YT34 entry or part of it, stated change not applied): as the sequence (Q7YT34 entry or part of it, further chain) above
OR3_V348A, sequence (Q5FBE0 entry or part of it V348A): as the sequence (Q5FBE0 entry or part of it) above, with V348A counted along it
OR3_L349A, sequence (Q7YT34 entry or part of it, stated change not applied): as the sequence (Q7YT34 entry or part of it, further chain) above
OR3_L349A, sequence (Q5FBE0 entry or part of it L349A): as the sequence (Q5FBE0 entry or part of it) above, with L349A counted along it
OR3_C215S, sequence (Q7YT34 entry or part of it, stated change not applied): as the sequence (Q7YT34 entry or part of it, further chain) above
OR3_C215S, sequence (Q5FBE0 entry or part of it C215S): as the sequence (Q5FBE0 entry or part of it) above, with C215S counted along it
OR3_V352A, sequence (Q5FBE0 entry or part of it V352A): as the sequence (Q5FBE0 entry or part of it) above, with V352A counted along it
OR3_V352A, sequence (Q7YT34 entry or part of it, stated change not applied, further chain): as the sequence (Q7YT34 entry or part of it, further chain) above

Structure (SMILES): CCC/C=C\C=C\CCCCCCCCC=O [Bombykal, bombykal]
- EC50 ([1]; EC50, HEK293 cells co-transfected with BmOR1, BmOrco, GCaMP6): 3 µM
- EC50 ([1]; Mean (-log EC50 ± SE), wild-type BmOR1/Orco): 3.02 µM
- response to non-cognate pheromone, fold smaller than cognate pheromone ([1]; bombykal vs cognate bombykol at BmOR1/Orco): ~ 10 fold
- Hill Coefficient (n± SE) ([1]; wild-type BmOR1/Orco): 1.41 ± 0.09
- Max (ΔF/F ± SE) ([1]; wild-type BmOR1/Orco, ΔF/F at highest ligand concentration): 1.02 ± 0.05 ΔF/F
- EC50 ([2]; EC50, HEK293 cells co-transfected with BmOR3, BmOrco, GCaMP6): 0.16 µM
- EC50 ([2]; Mean (-log EC50 ± SE), wild-type BmOR3/Orco): 0.162 µM
- Hill Coefficient (n± SE) ([2]; wild-type BmOR3/Orco): 1.12 ± 0.08
- Max (ΔF/F ± SE) ([2]; wild-type BmOR3/Orco, ΔF/F at highest ligand concentration): 0.98 ± 0.05 ΔF/F
- EC50 [3]: 15.8 µM
- Hill Coefficient (n± SE) ([3]; OR3_K58A): 0.8 ± 0.2
- Max (ΔF/F ± SE) ([3]; OR3_K58A): 0.18± 0.03 ΔF/F
- EC50 [4]: 13.8 µM
- Hill Coefficient (n± SE) ([4]; OR3_K58S): 1.2 ± 0.2
- Max (ΔF/F ± SE) ([4]; OR3_K58S): 0.36 ± 0.03 ΔF/F
- EC50 [5]: 10.2 µM
- Hill Coefficient (n± SE) ([5]; OR3_K58Q): 1.3 ± 0.1
- Max (ΔF/F ± SE) ([5]; OR3_K58Q): 0.68 ± 0.02 ΔF/F
- EC50 [6]: 3.16 µM
- Hill Coefficient (n± SE) ([6]; OR3_C215A): 1.4 ± 0.3
- Max (ΔF/F ± SE) ([6]; OR3_C215A): 0.82 ± 0.03 ΔF/F
- EC50 [7]: 1.26 µM
- Hill Coefficient (n± SE) ([7]; OR3_C215S): 1.09 ± 0.07
- Max (ΔF/F ± SE) ([7]; OR3_C215S): 0.82 ± 0.05 ΔF/F
- EC50 [8]: 12.6 µM
- Hill Coefficient (n± SE) ([8]; OR3_F159A): 4 ± 2
- Max (ΔF/F ± SE) ([8]; OR3_F159A): 0.16 ± 0.02 ΔF/F
- EC50 [9]: 3.39 µM
- Hill Coefficient (n± SE) ([9]; OR3_L349A): 5 ± 3
- Max (ΔF/F ± SE) ([9]; OR3_L349A): 0.48 ± 0.04 ΔF/F
- EC50 [10]: 0.501 µM
- Hill Coefficient (n± SE) ([10]; OR3_L353A): 1.3 ± 0.2
- Max (ΔF/F ± SE) ([10]; OR3_L353A): 0.91 ± 0.04 ΔF/F
- EC50 [11]: 0.479 µM
- Hill Coefficient (n± SE) ([11]; OR3_V348A): 1.25 ± 0.08
- Max (ΔF/F ± SE) ([11]; OR3_V348A): 1.13 ± 0.04 ΔF/F
- EC50 [12]: 0.537 µM
- Hill Coefficient (n± SE) ([12]; OR3_V352A): 1.9 ± 0.2
- Max (ΔF/F ± SE) ([12]; OR3_V352A): 0.63 ± 0.03 ΔF/F
- behavioral response [13]: suppresses mating behavior
